Measured values as given in article PMC5840332, “Disease-associated missense mutations in GluN2B subunit alter NMDA receptor ligand binding and ion channel properties” (Nature Communications, 2018).
Values joined by “and” are separate entries in the source; they are usually repeats but may differ in a detail not shown here. Equal entries are not always repeated. Blank lines part the entries; values can stand above or below the compound they belong to.

Key:
[1] = test system: NMDAR-mediated EPSCs, hippocampal neurons; assay: NMDAR-mediated EPSCs in cultured hippocampal neurons, pharmacological characterisation; assay type: cell-based, rat
Experimental: The impact of the GluN2B mutations was assessed on neuronal NMDARs by evoking network-driven NMDAR-mediated EPSCs in hippocampal neurons transfected with either wild-type or mutant GluN2B constructs. Hippocampal cultures were superfused with Krebs containing 10 μM CNQX and 20 μM bicuculline to block non-NMDA receptor and GABAA receptor-mediated currents, respectively. […] To obtain phase-locked EPSCs, a loose cell-attached patch electrode was used to serially stimulate presynaptic neurons yielding evoked EPSCs in postsynaptic neurons.
The relative contributions of GluN2A and GluN2B subunits to NMDAR-mediated currents (at 13–15 DIV) was assessed using the selective antagonists, TCN213 (30 μM, for GluN2A) and ifenprodil (3 μM, for GluN2B).
(§1) Dissected hippocampi were dissociated from E18 Sprague Dawley rat embryos using procedures and protocols that have been approved by the UK Home Office. They were dissociated into single cells using 0.1% w/v trypsin and serially triturated with flame-polished Pasteur pipettes. […] Neurons were transfected after 10 days in vitro (DIV) with either cDNAs for the GluN2B WT or mutants together with DsRed using Effectene (Qiagen) and recorded at 13–15 DIV.
(§2) Cells were voltage clamped at −60 mV.
(§3) NMDAR-mediated EPSCs were evoked by direct stimulation of single neighbouring neurons using a loose cell-attached patch electrode filled with Krebs and containing a bipolar stimulating electrode. […] For the pharmacological characterisation of NMDAR-mediated EPSCs, the selective antagonists ifenprodil (+)-hemitartrate (Santacruz biotechnology) and TCN213 (Tocris) were used.
(§4) EPSCs were analysed offline using WinWCP (Strathclyde Electrophysiology Software, UK). Peak EPSC amplitude, the area of the EPSC (charge transfer) and EPSC decays were measured. The decay time constants (τ) were determined by fitting the EPSC decays with a double exponential function. The weighted time constant (τw) was calculated using the following equation, where A indicates the relative area of each time constant.3 τw=((A1.τ1)+(A2.τ2))∕A1+A2.

[2] = biological target: T1, GluN1–GluN2B^N615I (Homo sapiens, UniProt Q05586+Q13224, N615I); assay: Ion permeability experiments in Mg2+ or Ca2+ solution, HEK293 cells; assay type: cell-based; set-up: expressed in transfected cells; host or cells: HEK293; details: −60 mV
From the text: (§5) To assess Mg^2+ permeability the external solution was altered such that Mg^2+ was the only current-carrying cation (Mg^2+ solution). […] The same result was apparent for GluN1–GluN2B^N615I (Fig. 4a; Table 1). […] To assess whether the channel mutants affected Ca^2+ permeation, we modified the external solution to make Ca^2+ the only current-carrying cation[24] (Ca^2+ solution). […] This implied a significant reduction in Ca^2+ permeation for GluN2B^N615I.
as §2

[3] = biological target: T2, GluN1–GluN2B^V618G (Homo sapiens, UniProt Q05586+Q13224, V618G); assay: as above; assay type: cell-based; set-up: expressed in transfected cells; host or cells: HEK293; details: −60 mV
From the text: as §5, §2

[4] = biological target: T3, GluN1–GluN2B^WT (Homo sapiens, UniProt Q05586+Q13224); assay: as above; assay type: cell-based; set-up: expressed in transfected cells; host or cells: HEK293; details: −60 mV
From the text: as §5, §2

[5] = test system: hippocampal neurons expressing GluN2B^N615I; assay: Evoked NMDAR-mediated EPSCs in transfected hippocampal neurons; assay type: cell-based, rat; details: 30 μM memantine, 0 Mg^2+
From the text: as §1, §2, §3, §4

[6] = test system: hippocampal neurons expressing GluN2B^V618G; assay: as above; assay type: cell-based, rat; details: 300 μM memantine, 0 Mg^2+
From the text: as §1, §2, §3, §4

[7] = test system: hippocampal neurons expressing GluN2B^WT; assay: as above; assay type: cell-based, rat; details: 30 μM memantine, 0 Mg^2+
From the text: as §1, §2, §3, §4

[8] = Memantine pKa and ionisation; assay type: physicochemical
[9] = biological target: T1, GluN1–GluN2B^N615I; assay: Memantine block of glutamate currents in HEK293 cells (concentration–inhibition, I–V, trapping model); assay type: cell-based; set-up: expressed in transfected cells; host or cells: HEK293
Experimental: (§6) To examine voltage-dependent block of NMDARs, HEK293 cells were voltage clamped at −30 mV, and currents recorded following a voltage (10 mV) step protocol from −90 to +90 mV. […] The current induced by the agonists was determined by subtracting the leak current before plotting the I–V relationship.
(§7) To explain the block of the NMDAR we adopted a trapping based model (Table 2) whereby the antagonist can remain bound to its site (e.g. in the channel) after agonist dissociation.
(§8) The values of k+bo(0 mV) and k+bi(0 mV) were fixed at 5 × 10^7 M^-1 s^-1. […] This allowed k−bo and δMg to be estimated independently. For the permeation model (see below), the same principle was used to define the ion binding rate (k+bi) from the inside of the channel.

[10] = biological target: T2, GluN1–GluN2B^V618G; assay: as above; assay type: cell-based; set-up: expressed in transfected cells; host or cells: HEK293
Experimental: as §6, §7, §8

[11] = biological target: T3, GluN1–GluN2B^WT; assay: as above; assay type: cell-based; set-up: expressed in transfected cells; host or cells: HEK293; details: for δMem, fraction of membrane potential sensed by memantine: trapping block model fit
Experimental: as §6, §7, §8

[12] = biological target: T3, GluN1–GluN2B^WT; assay: Mg2+ block of glutamate currents in HEK293 cells (concentration–inhibition, I–V, trapping model); assay type: cell-based; set-up: expressed in transfected cells; host or cells: HEK293
[13] = biological target: T1, GluN1–GluN2B^N615I; assay: Mg2+ block of glutamate currents in HEK293 cells (concentration–inhibition, I–V, permeation model); assay type: cell-based; set-up: expressed in transfected cells; host or cells: HEK293; details: 1 μM–10 mM Mg^2+, −60 mV
[14] = biological target: T2, GluN1–GluN2B^V618G; assay: as above; assay type: cell-based; set-up: expressed in transfected cells; host or cells: HEK293; details: −60 mV; for Effect of external Mg^2+ on glutamate current (Mg2+ block): 1 μM–10 mM Mg^2+
[15] = test system: GluN1-GluN2A diheteromers; set-up: method as in PMID 22022974; details: cited from earlier work
[16] = biological target: GluN1–GluN2B^C461F (Homo sapiens, UniProt Q05586+Q13224, C461F); assay: Glutamate-activated whole-cell currents in HEK293 cells
Experimental: (§9) We used the alternatively spliced GluN1–4b isoform for co-expression with GluN2B.
(§10) All human NMDAR GluN1 (isoforms GluN1–4b[66]) and GluN2B constructs were cloned into the pRK5 expression vector (CMV promoter) with optimised Kozak sequences.
(§11) Whole-cell currents (in HEK293 cells) and evoked NMDAR-mediated EPSCs (in cultured neurons) were recorded using an AxoPatch 200B amplifier (Molecular Devices, Sunnyvale, CA, USA). […] The experiments using Ca^2+ as the main external ion were performed using a ‘Ca^2+-solution’ containing (mM): 100 CaCl2, 5 HEPES adjusted to pH 7.4 with Ca(OH)2. […] Cells were voltage clamped at −60 mV.
(§12) The rectification index (Ri) is measured from the current-voltage

[17] = biological target: GluN1–GluN2B^P553L (Homo sapiens, UniProt Q05586+Q13224, P553L); assay: as above
Experimental: as §9, §10, §11, §12

[18] = biological target: T1, GluN1–GluN2B^N615I; assay: as above; details: 10 μM glycine
Experimental: as §9, §10, §11, §12

[19] = biological target: T2, GluN1–GluN2B^V618G; assay: as above
Experimental: as §9, §10, §11, §12

[20] = biological target: GluN1-GluN2B R540H (Homo sapiens, UniProt Q05586+Q13224, R540H); assay: Glutamate-activated whole-cell currents in HEK293 cells (mutation screen); details: saturating glutamate, -30 mV
Experimental: as §10, §11, §12

[21] = biological target: GluN1-GluN2B R682C (Homo sapiens, UniProt Q05586+Q13224, R682C); assay: as above; details: saturating glutamate, -30 mV
Experimental: as §10, §11, §12

[22] = biological target: GluN1-GluN2B L825V (Homo sapiens, UniProt Q05586+Q13224, L825V); assay: as above; details: saturating glutamate, -30 mV
Experimental: as §10, §11, §12

[23] = test system: GluN1-GluN2BC456Y; assay: as above; details: up to 3 mM glutamate
Experimental: as §10, §11, §12

[24] = test system: GluN1-GluN2BA636P; assay: as above; details: up to 3 mM glutamate
Experimental: as §10, §11, §12

[25] = biological target: T3, GluN1–GluN2B^WT; assay: Glutamate-activated whole-cell currents in HEK293 cells (concentration–response, current density, desensitisation)
Experimental: as §9, §10, §11, §12

[26] = Ca^2+ solution (100 mM), 10 μM glutamate and 10 μM glycine
[27] = current in Ca^2+ solution as % of current in Krebs
[28] = 3 μM ifenprodil, 13–15 DIV untransfected neurons
[29] = after removal of 10 μM glutamate + 10 μM glycine, range of memantine concentrations
[30] = Mg^2+ solution (100 mM), 10 μM glutamate and 10 μM glycine
[31] = current in Mg^2+ solution as % of current in Krebs
[32] = 30 μM TCN213, 13–15 DIV untransfected neurons
[33] = saturating glutamate, 10 μM glycine, −30 mV

T3 sequence (Q13224 27-1484, other chains not shown): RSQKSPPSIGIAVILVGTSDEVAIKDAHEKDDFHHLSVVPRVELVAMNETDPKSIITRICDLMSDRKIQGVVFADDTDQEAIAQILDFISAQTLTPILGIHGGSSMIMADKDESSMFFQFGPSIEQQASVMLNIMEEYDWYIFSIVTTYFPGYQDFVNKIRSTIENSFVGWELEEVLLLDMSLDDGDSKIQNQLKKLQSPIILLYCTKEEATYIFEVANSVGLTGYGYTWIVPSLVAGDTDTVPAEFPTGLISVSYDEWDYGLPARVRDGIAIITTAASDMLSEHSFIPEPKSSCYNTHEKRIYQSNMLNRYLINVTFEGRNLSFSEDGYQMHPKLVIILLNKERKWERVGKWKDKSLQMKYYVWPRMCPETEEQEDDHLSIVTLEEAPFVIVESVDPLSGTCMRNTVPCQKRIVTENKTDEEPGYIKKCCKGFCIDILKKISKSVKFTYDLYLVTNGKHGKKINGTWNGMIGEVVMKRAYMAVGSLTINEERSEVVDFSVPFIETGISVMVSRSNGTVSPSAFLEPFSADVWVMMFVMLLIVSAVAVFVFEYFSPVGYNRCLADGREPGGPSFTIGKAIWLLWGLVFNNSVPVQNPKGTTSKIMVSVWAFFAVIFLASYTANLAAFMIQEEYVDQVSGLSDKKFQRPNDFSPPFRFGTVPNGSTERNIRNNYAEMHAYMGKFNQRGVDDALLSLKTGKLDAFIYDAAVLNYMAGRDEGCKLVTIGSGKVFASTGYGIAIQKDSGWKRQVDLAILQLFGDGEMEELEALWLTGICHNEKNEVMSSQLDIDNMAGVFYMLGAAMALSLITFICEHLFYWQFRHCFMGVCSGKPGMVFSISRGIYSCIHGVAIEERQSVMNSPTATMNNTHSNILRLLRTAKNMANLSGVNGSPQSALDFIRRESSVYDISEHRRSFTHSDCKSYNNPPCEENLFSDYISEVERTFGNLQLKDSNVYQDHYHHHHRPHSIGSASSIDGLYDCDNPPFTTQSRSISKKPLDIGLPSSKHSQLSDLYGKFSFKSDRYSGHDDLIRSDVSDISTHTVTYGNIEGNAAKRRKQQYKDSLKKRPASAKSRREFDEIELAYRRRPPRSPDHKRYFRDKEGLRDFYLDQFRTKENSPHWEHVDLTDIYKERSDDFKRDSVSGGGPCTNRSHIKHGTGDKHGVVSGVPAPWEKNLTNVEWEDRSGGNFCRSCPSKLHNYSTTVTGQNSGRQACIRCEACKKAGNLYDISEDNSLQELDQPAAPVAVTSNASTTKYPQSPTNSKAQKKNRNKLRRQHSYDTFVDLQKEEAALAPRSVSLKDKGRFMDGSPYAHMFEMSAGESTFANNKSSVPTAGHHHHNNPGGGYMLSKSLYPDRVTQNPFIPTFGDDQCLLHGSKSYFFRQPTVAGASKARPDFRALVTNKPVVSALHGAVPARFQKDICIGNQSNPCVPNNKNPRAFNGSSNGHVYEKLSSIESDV
T2 sequence (Q13224 27-1484 V618G, other chains not shown): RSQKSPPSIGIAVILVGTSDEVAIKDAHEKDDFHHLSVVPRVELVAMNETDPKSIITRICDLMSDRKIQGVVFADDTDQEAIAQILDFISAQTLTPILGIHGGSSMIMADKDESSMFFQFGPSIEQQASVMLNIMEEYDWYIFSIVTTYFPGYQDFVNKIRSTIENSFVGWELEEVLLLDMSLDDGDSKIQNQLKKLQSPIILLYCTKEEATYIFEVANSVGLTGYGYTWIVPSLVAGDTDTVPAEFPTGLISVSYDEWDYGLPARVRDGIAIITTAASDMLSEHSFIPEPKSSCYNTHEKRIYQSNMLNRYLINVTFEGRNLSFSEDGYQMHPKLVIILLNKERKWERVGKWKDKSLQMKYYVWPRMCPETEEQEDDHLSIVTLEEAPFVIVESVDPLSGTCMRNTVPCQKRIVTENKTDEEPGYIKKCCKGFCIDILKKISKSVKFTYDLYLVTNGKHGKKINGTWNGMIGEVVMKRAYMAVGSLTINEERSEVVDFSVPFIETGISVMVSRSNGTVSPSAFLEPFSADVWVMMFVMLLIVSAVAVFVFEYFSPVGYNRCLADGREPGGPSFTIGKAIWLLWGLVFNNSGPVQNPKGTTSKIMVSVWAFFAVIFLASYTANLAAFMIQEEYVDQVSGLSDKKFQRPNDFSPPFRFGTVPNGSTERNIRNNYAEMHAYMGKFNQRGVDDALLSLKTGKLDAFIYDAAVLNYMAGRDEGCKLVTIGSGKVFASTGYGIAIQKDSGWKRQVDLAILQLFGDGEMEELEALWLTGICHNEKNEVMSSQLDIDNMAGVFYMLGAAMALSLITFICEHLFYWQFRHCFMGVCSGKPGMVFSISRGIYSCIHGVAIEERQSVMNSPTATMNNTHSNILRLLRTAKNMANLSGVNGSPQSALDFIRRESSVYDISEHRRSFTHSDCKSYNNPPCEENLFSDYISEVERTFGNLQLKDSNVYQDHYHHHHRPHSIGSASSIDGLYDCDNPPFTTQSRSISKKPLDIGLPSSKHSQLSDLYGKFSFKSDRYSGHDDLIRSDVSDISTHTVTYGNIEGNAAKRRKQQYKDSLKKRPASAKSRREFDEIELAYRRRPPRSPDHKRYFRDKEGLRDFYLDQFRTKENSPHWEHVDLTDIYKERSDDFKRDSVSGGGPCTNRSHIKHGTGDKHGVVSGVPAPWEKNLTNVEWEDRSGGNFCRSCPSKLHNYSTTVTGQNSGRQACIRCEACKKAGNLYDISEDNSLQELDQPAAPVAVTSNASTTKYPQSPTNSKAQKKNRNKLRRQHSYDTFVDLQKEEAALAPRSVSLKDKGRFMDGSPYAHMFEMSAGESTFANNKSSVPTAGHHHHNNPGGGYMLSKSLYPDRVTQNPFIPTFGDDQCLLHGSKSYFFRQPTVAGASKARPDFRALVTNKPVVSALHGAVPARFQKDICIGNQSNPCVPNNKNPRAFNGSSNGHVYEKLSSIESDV
GluN1–GluN2B^C461F, sequence (Q13224 27-1484 C461F, other chains not shown): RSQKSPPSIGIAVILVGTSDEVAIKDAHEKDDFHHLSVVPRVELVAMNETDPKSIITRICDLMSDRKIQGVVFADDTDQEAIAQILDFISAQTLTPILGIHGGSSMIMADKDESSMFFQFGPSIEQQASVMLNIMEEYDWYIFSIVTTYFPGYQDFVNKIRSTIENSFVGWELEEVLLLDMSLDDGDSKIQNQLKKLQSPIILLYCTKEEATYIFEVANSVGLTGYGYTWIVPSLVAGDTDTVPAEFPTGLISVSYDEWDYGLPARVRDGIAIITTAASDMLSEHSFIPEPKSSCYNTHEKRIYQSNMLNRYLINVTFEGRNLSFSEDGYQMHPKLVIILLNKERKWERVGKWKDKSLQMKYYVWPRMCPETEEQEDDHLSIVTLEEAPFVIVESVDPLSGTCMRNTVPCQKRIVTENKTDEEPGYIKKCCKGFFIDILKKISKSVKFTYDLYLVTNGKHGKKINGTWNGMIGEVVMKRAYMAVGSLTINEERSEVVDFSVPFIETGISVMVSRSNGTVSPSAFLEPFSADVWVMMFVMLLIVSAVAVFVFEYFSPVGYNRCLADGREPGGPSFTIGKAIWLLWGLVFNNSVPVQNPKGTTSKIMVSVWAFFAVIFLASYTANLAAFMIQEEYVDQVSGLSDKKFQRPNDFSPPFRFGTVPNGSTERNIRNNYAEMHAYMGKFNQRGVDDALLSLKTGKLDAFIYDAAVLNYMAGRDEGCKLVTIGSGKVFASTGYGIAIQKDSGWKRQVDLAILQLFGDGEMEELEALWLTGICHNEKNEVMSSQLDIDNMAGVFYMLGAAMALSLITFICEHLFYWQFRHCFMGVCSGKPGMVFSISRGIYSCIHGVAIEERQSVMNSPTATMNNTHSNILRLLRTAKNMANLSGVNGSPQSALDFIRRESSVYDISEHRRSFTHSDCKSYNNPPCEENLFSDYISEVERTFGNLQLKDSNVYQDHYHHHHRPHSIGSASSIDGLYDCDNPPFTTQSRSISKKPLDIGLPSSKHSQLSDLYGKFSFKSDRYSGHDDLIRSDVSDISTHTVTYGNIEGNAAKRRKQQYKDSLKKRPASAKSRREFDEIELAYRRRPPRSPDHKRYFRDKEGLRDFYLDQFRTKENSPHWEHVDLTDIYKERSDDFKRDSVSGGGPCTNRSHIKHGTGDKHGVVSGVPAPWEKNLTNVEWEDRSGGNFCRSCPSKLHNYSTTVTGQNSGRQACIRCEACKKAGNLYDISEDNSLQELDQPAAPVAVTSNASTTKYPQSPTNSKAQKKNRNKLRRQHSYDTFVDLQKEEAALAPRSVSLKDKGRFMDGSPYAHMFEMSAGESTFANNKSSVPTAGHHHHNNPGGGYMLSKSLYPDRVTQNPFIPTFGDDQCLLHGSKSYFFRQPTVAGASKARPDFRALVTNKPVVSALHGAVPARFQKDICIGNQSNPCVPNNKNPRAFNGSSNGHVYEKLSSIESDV

Compound: N[C@@H](CCCP(=O)(O)O)C(=O)O [APV]
Effect on spontaneous/evoked EPSCs ([1]; 20 μM APV, 0 Mg^2+, 10 μM CNQX, 20 μM bicuculline): blocked

ICa current density [2, 26]: −0.47 ± 0.10 pA/pF | ICa current density [3, 26]: −5.00 ± 0.64 pA/pF | ICa current density [4, 26]: −7.08 ± 2.12 pA/pF
Compound: [Ca+2] [Ca^2+]
ICa/IKrebs [2, 27]: 11.07 ± 1.04% | ICa/IKrebs [3, 27]: 46.28 ± 3.18% | ICa/IKrebs [4, 27]: 52.83 ± 1.07%

Compound: CC(C(O)c1ccc(O)cc1)N1CCC(Cc2ccccc2)CC1 (stereo not drawn) [Ifenprodil, ifenprodil (+)-hemitartrate]
Decrease of EPSC decay time [1, 28]: 30% | Effect on peak EPSC amplitude [1, 28]: reduced the peak EPSC amplitude

Compound: CC12CC3CC(C)(C1)CC(N)(C3)C2 [Memantine, memantine]
Inhibition of peak EPSC amplitude and charge transfer by memantine [5]: inhibited to a comparable extent | Inhibition of peak EPSC amplitude and charge transfer by memantine [6]: inhibited to a comparable extent | Inhibition of peak EPSC amplitude and charge transfer by memantine [7]: inhibited to a comparable extent | Fraction charged at physiological pH [8]: 99.95% | Effect of memantine on deactivation time constant (τ) [9, 29]: did not affect | δMem, fraction of membrane potential sensed by memantine ([9]; trapping block model fit): 0.42 ± 0.11 | Effect of memantine on deactivation time constant (τ) [10, 29]: did not affect | δMem, fraction of membrane potential sensed by memantine ([10]; trapping block model fit): 0.42 ± 0.03 | Effect of memantine on deactivation time constant (τ) [11, 29]: did not affect | δMem, fraction of membrane potential sensed by memantine [11]: 0.65 ± 0.026 | δMem, fraction of membrane potential sensed by memantine ([11]; listed as memantine): 0.65 ± 0.03

k-bi (0mV), Mg2+ unbinding rate constant to inside ([12]; predicted rate constant, 0 mV): 25124 s⁻¹ | k-bo (0mV), Mg2+ unbinding rate constant to outside ([12]; predicted rate constant, 0 mV): 24686 s⁻¹ | Kd ([12]; read-out: Dissociation constant for Mg^2+ binding at −60 mV, trapping block model, −60 mV): 123 µM | IC50 ([12]; read-out: Mg^2+ IC50 (−60 mV), 10 μM glutamate and 10 μM glycine, −60 mV): 142 µM | δMg, fraction of membrane potential sensed by Mg^2+ ([12]; trapping block model fit): 0.88 ± 0.04 | Effect of external Mg^2+ on glutamate current (Mg2+ block) [13]: unaffected by external Mg^2+ | Effect of external Mg^2+ on glutamate current (Mg2+ block) ([13]; listed as Mg2+): insensitive to Mg2+ | Effect of external Mg^2+ on glutamate current (Mg2+ block) [14]: unaffected by external Mg^2+ | Effect of external Mg^2+ on glutamate current (Mg2+ block) ([14]; listed as Mg2+): insensitive to Mg2+ | Change in current at high Mg^2+ concentrations ([14]; 3–10 mM Mg^2+): small increase in current | IMg current density [2, 30]: −0.09 ± 0.03 pA/pF | IMg current density [3, 30]: −10.28 ± 2.53 pA/pF | IMg current density [4, 30]: −0.07 ± 0.03 pA/pF
Compound: [Mg+2] [Mg^2+]
IMg/IKrebs [2, 31]: 1.63 ± 0.64% | IMg/IKrebs [3, 31]: 58.4 ± 9.8% and 58.46 ± 9.8 % | IMg/IKrebs [4, 31]: 0.91 ± 0.37%

Compound: O=C(CSc1nnc(NCc2ccccc2)s1)NCC1CCCCC1 [TCN213]
Prolongation of EPSC decay [1, 32]: 40% | Reduction of peak EPSC amplitude [1, 32]: 10% | IC50 [15]: ~30 µM

Compound: N[C@@H](CCC(=O)O)C(=O)O [glutamate]
Hill slope (n) of glutamate concentration–response curve ([16]; 10 μM glycine): 1.44 ± 0.03 | Glutamate current density (maximal current/cell capacitance) ([16]; saturating glutamate, -30 mV): -6.49 ± 3.94 pA/pF | Reduction of glutamate potency compared to wild-type ([16]; vs GluN1–GluN2B WT): 71 fold | Hill slope (n) of glutamate concentration–response curve ([17]; 10 μM glycine): 0.89 ± 0.05 | Glutamate current desensitisation decay τ [17, 33]: 420.3 ± 30.1 ms | Glutamate current density (maximal current/cell capacitance) ([17]; saturating glutamate, -30 mV): -15.31 ± 3.70 pA/pF | Reduction of glutamate potency compared to wild-type ([17]; vs GluN1–GluN2B WT): 1.7 fold | Hill slope (n) of glutamate concentration–response curve [18]: 1.27 ± 0.13 | Hill slope (n) of glutamate concentration–response curve ([19]; 10 μM glycine): 1.23 ± 0.12 | Glutamate current density (maximal current/cell capacitance) ([19]; saturating glutamate, -30 mV): -17.55 ± 3.35 pA/pF | Glutamate current density (maximal current/cell capacitance) [20]: -30.31 ± 7.71 pA/pF | Glutamate current density (maximal current/cell capacitance) [21]: -15.34 ± 2.56 pA/pF | Glutamate current density (maximal current/cell capacitance) [22]: -19.06 ± 3.65 pA/pF | Glutamate current [23]: No glutamate current was detected | Glutamate current [24]: No glutamate current was detected | Hill slope (n) of glutamate concentration–response curve ([25]; 10 μM glycine): 1.45 ± 0.12 | Glutamate current desensitisation decay τ [25, 33]: 21.17 ± 0.31 s | Glutamate current density (maximal current/cell capacitance) ([25]; saturating glutamate, -30 mV): -20.36 ± 4.54 pA/pF
